From patent US10967060B2, “Synergistic combination of immunologic inhibitors for the treatment of cancer” (The University of Chicago, priority 2012, dated 2021)

Test system: B16-SIY cells
Assay: Unaffected fraction (synergy) analysis of tumor growth inhibition of combination therapies
Assay type: in vivo, C57BL/6 mice
Settings: for Predicted TGI: expected for purely additive effect
Protocol: Treatment was initiated on day 4 post tumor inoculation with the following regimens for each drug. αCTLA-4 antibody (clone UC10-4F10-11, Bio-X-Cell) was given i.p. on day 4, 7 and 10 at a dose of 100 μg/mouse. αPD-L1 antibody (clone 10F.9G2, Bio-X-Cell) was given i.p. (100 μg/mouse) every other day starting on day 4 ending on day 16 post tumor inoculation. IDOi (INCB23843, Incyte Corporation) was dissolved in 0.5% methylcellulose and administered at 300 mg/kg po QD on a 5 days on/2 days off schedule starting on day 4. In the case of functional experiments with an earlier endpoint, treatment regimens were carried out as described until the day of T cell analysis. A comparison between IDOi and IDOc (INCB24360, Incyte Corporation) was perfomed according to the treatment regime described above. Tumor outgrowth was followed starting day 7 onwards and is depicted in combination with anti-CTLA4 (FIG. 18A) or anti-PD-L1 (FIG. 18B). N=5 mice per group, and a two-way Anova test was used to determine significance between the groups.
Treatment was administered in the same fashion as described for FIG. 9, with the exception that IDOi (INCB23843) was replaced by IDOc (INCB24360) in the indicated groups.
Synergy analysis was performed with day 15 data and with day 23 data. Actual tumor growth inhibition (TGI) is the experimental TGI seen in this experiment for the combinations, and predicted TGI is the TGI that would have been expected for a purely additive combination effect from the performance of the individual agents in this experiment. Actual TGIs higher than predicted TGIs reflect better than additive (synergistic) data.

[1] = Day 15 (end of dosing), in combination with anti CTLA4
[2] = Day 15 (end of dosing), in combination with antiPDL1
[3] = Day 23 (last day of vehicles), in combination with anti CTLA4
[4] = Day 23 (last day of vehicles), in combination with antiPDL1

## NS(=O)(=O)NCCNc1nonc1/C(=N/O)Nc1ccc(F)c(Br)c1 [IDOc]
[1]
  Actual TGI: 74%
  Predicted TGI: 66%
[2]
  Actual TGI: 81%
  Predicted TGI: 24%
[3]
  Actual TGI: 93%
  Predicted TGI: 65%
[4]
  Actual TGI: 82%
  Predicted TGI: 35%
